Results from ChEMBL document CHEMBL1201862, “PubChem BioAssay data set” (2004).
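96-well plates; 48 h exposure; 5 concentrations. Endpoints by linear interpolation between flanking doses. Not reached: highest tested concentration assigned. Abbreviation: GI50, concentration required for 50% inhibition of growth.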 Calls of active or inactive are those of the source. Cut-off read from the data, not from the text of the source: active = GI50 up to about 1.1 µM and inactive = higher.

Legend:
Assay in all cases: NCI-60 cell line screen, 48 h
SF-539 = tested on: SF-539
M14 = tested on: M14
PC-3 = tested on: PC-3
SF-295 = tested on: SF-295
SK-MEL-28 = tested on: SK-MEL-28
EKVX = tested on: EKVX
LOX IMVI = tested on: LOX IMVI
SR = tested on: SR
SN12C = tested on: SN12C
SW-620 = tested on: SW-620
MDA-N = tested on: MDA-N
NCI-H226 = tested on: NCI-H226
CAKI-1 = tested on: CAKI-1
OVCAR-3 = tested on: OVCAR-3
786-0 = tested on: 786-0
HCT-15 = tested on: HCT-15
Hs-578T = tested on: Hs-578T
A498 = tested on: A498
SNB-75 = tested on: SNB-75

Compound: CC1=C2C(=O)c3ccccc3C(=O)[C@H]2C[C@@H](N2CCCCCC2=O)O1
- GI50 (SF-539): 19 µM (inactive)
- GI50 (M14): 15.4 µM (inactive)
- GI50 (PC-3): 17.9 µM (inactive)
- GI50 (SF-295): 18.8 µM (inactive)
- GI50 (SK-MEL-28): 18.7 µM (inactive)
- GI50 (EKVX): 23.1 µM (inactive)
- GI50 (LOX IMVI): 17.3 µM (inactive)
- GI50 (SR): 6.92 µM (inactive)
- GI50 (SN12C): 17.7 µM (inactive)
- GI50 (SW-620): 17.3 µM (inactive)
- GI50 (MDA-N): 16 µM (inactive)
- GI50 (NCI-H226): 30.5 µM (inactive)
- GI50 (CAKI-1): 16.9 µM (inactive)
- GI50 (OVCAR-3): 18 µM (inactive)
- GI50 (786-0): 18.4 µM (inactive)
- GI50 (HCT-15): 20.7 µM
- GI50 (Hs-578T): 30.5 µM (inactive)
- GI50 (A498): > 100 µM (inactive)
- GI50 (SNB-75): 23.4 µM (inactive)

Compound: Oc1ccc(Cc2nccc3cc(O)c(O)cc23)cc1O
- GI50 (SF-539): 40.4 µM (inactive)
- GI50 (M14): 26.6 µM (inactive)
- GI50 (PC-3): 52.6 µM (inactive)
- GI50 (SF-295): 37.2 µM (inactive)
- GI50 (SK-MEL-28): 79.8 µM (inactive)
- GI50 (EKVX): 26.5 µM (inactive)
- GI50 (LOX IMVI): 33.5 µM (inactive)
- GI50 (SR): 19.6 µM (inactive)
- GI50 (SN12C): 29.9 µM (inactive)
- GI50 (SW-620): 36.1 µM (inactive)
- GI50 (MDA-N): 58.2 µM (inactive)
- GI50 (NCI-H226): 46.2 µM (inactive)
- GI50 (CAKI-1): 58.3 µM (inactive)
- GI50 (OVCAR-3): 90.8 µM (inactive)
- GI50 (786-0): 32.1 µM (inactive)
- GI50 (HCT-15): 57.7 µM
- GI50 (Hs-578T): > 100 µM (inactive)
- GI50 (A498): 45 µM (inactive)
- GI50 (SNB-75): 21 µM (inactive)

Compound: c1ccc(C2=NC3OC2c2ccccc23)cc1 (stereo unspecified)
- GI50 (SF-539): > 10 µM (inactive)
- GI50 (M14): > 10 µM (inactive)
- GI50 (PC-3): > 10 µM (inactive)
- GI50 (SF-295): > 10 µM (inactive)
- GI50 (SK-MEL-28): > 10 µM (inactive)
- GI50 (EKVX): > 10 µM (inactive)
- GI50 (LOX IMVI): > 10 µM (inactive)
- GI50 (SR): > 10 µM (inactive)
- GI50 (SN12C): > 10 µM (inactive)
- GI50 (SW-620): > 10 µM (inactive)
- GI50 (MDA-N): > 10 µM (inactive)
- GI50 (NCI-H226): > 10 µM (inactive)
- GI50 (CAKI-1): > 10 µM (inactive)
- GI50 (OVCAR-3): > 10 µM (inactive)
- GI50 (786-0): > 10 µM (inactive)
- GI50 (HCT-15): > 10 µM
- GI50 (Hs-578T): > 10 µM (inactive)
- GI50 (A498): > 10 µM (inactive)
- GI50 (SNB-75): > 10 µM (inactive)

Compound: COC(=O)N/N=C(\c1ccccc1)c1ccc(OC)cc1
- GI50 (SF-539): > 100 µM (inactive)
- GI50 (M14): > 100 µM (inactive)
- GI50 (PC-3): > 100 µM (inactive)
- GI50 (SK-MEL-28): > 100 µM (inactive)
- GI50 (EKVX): > 100 µM (inactive)
- GI50 (LOX IMVI): 35.3 µM (inactive)
- GI50 (SR): > 100 µM (inactive)
- GI50 (SN12C): > 100 µM (inactive)
- GI50 (SW-620): > 100 µM (inactive)
- GI50 (MDA-N): > 100 µM (inactive)
- GI50 (NCI-H226): > 100 µM (inactive)
- GI50 (CAKI-1): > 100 µM (inactive)
- GI50 (OVCAR-3): > 100 µM (inactive)
- GI50 (786-0): > 100 µM (inactive)
- GI50 (HCT-15): > 100 µM
- GI50 (Hs-578T): > 100 µM (inactive)
- GI50 (A498): > 100 µM (inactive)
- GI50 (SNB-75): 78.7 µM (inactive)

Compound: CC1(C)[N+]([O-])=[N+]([O-])C1(C)O (stereo unspecified)
- GI50 (SF-539): > 100 µM (inactive)
- GI50 (M14): > 100 µM (inactive)
- GI50 (PC-3): > 100 µM (inactive)
- GI50 (SK-MEL-28): > 100 µM (inactive)
- GI50 (EKVX): > 100 µM (inactive)
- GI50 (LOX IMVI): > 100 µM (inactive)
- GI50 (SR): > 100 µM (inactive)
- GI50 (SN12C): > 100 µM (inactive)
- GI50 (SW-620): > 100 µM (inactive)
- GI50 (MDA-N): > 100 µM (inactive)
- GI50 (NCI-H226): > 100 µM (inactive)
- GI50 (CAKI-1): > 100 µM (inactive)
- GI50 (OVCAR-3): > 100 µM (inactive)
- GI50 (786-0): > 100 µM (inactive)
- GI50 (HCT-15): > 100 µM
- GI50 (Hs-578T): > 100 µM (inactive)
- GI50 (A498): > 100 µM (inactive)
- GI50 (SNB-75): > 100 µM (inactive)

Compound: CN(C)Cc1cc(C(=O)/C=C/c2ccc(Cl)cc2)cc(CN(C)C)c1O
- GI50 (SF-539): 19.3 µM (inactive)
- GI50 (PC-3): 10.8 µM (inactive)
- GI50 (SF-295): 13.3 µM (inactive)
- GI50 (SK-MEL-28): 13.4 µM (inactive)
- GI50 (EKVX): 12.8 µM (inactive)
- GI50 (LOX IMVI): 4.43 µM (inactive)
- GI50 (SR): 11.1 µM (inactive)
- GI50 (SN12C): 10.8 µM (inactive)
- GI50 (SW-620): 6.65 µM (inactive)
- GI50 (MDA-N): 10.4 µM (inactive)
- GI50 (NCI-H226): 22 µM (inactive)
- GI50 (CAKI-1): 6.05 µM (inactive)
- GI50 (OVCAR-3): 3.06 µM (inactive)
- GI50 (786-0): 5.93 µM (inactive)
- GI50 (HCT-15): 15.9 µM
- GI50 (Hs-578T): 17.5 µM (inactive)
- GI50 (A498): 12.7 µM (inactive)
- GI50 (SNB-75): 8.75 µM (inactive)
